Among the data in publication PMC3925156, “Β-Amylase from Starchless Seeds of Trigonella Foenum-Graecum and Its Localization in Germinating Seeds” (PLoS ONE, 2014) are Ki values, retold here.

For this test, the target named is T1, Fenugreek β-amylase.
T1 construct: gene BMY1; native, purified from ungerminated seeds (acetone, DEAE-cellulose, glycogen precipitation)
Briefly: starch hydrolysis assay, Dixon plot. Conditions: competitive; starch substrate, pH 5.0, 30°C, 10 min preincubation. The test is classed as biochemical, Trigonella foenum-graecum.

As a reminder, the Ki is the equilibrium dissociation constant of an inhibitor or competing ligand from its target. A low value points to a stronger hold on the target. `OC[C@H]1O[C@@](CO)(O[C@H]2O[C@H](CO)[C@@H](O)[C@H](O)[C@H]2O)[C@@H](O)[C@@H]1O` [sucrose] had a Ki of 2.32 mM. `OC[C@H]1O[C@@H]2O[C@H]3[C@H](O)[C@@H](O)[C@@H](O[C@H]4[C@H](O)[C@@H](O)[C@@H](O[C@H]5[C@H](O)[C@@H](O)[C@@H](O[C@H]6[C@H](O)[C@@H](O)[C@@H](O[C@H]7[C@H](O)[C@@H](O)[C@@H](O[C@H]1[C@H](O)[C@H]2O)O[C@@H]7CO)O[C@@H]6CO)O[C@@H]5CO)O[C@@H]4CO)O[C@@H]3CO` [α-cyclodextrin] had a Ki of 3.97 mM.
